Measurements reported in US20220023291A1, “COMPOSITIONS AND METHODS FOR REGULATING INFLAMMATION” (University of Virginia Patent Foundation, priority 2018, published 2022).
Entries after “also recorded” stand apart in the source; their conditions may differ.

Legend:
sigma-1 receptor = sigma-1 receptor (Homo sapiens, UniProt Q99720); settings: cited from earlier work
mice = mice treated with scopolamine, synthetic Aβ oligomer injection, or dizocilpine; cited from earlier work
muscarinic receptor = settings: cited from earlier work
tau hyperphosphorylation = settings: cited from earlier work
[1] = target: T1, IRE1 endonuclease activity (Mus musculus, UniProt Q9EQY0); assay: XBP1 splicing ratio by qPCR in BMDM; assay type: cell-based
T1 construct: We prepared bone marrow derived macrophages (BMDM) from WT and S1R KO mice; endogenous in cells; host or cells: primary mouse bone marrow derived macrophages (WT and S1R KO, C57BL/6J background)
Protocol: (§1) Tissue culture conditions and Reagents. HEK293 cells, primary lung fibroblasts and BMDM were isolated and maintained as described (41-43). Cells were treated with LPS (Sigma, L4391), 4μ8C (Tocris, 4479), tunicamycin (Tocris, 3516), PD98059 (Medchem Express HY-12028), JSH-23 (Medchem Express, Hy-13982), SP600125 (Medchem Express, HY-12041), cycloheximide (Tocris, 0970), lactacystin (Cayman Chemical, 70980), chloroquine (Fisher, ICN19391925), and STF 083010 (Medchem Express, HY-15845) as described in the text.
cDNA synthesis and quantitative RT-PCR. Total RNA was extracted using an ISOLATE II RNA (Bioline, 52073) and cDNA synthesis was performed with the ISCRIPT™ kit (Bio-Rad, 170-8891). TaqMan Probes were obtained from Life Technologies (GAPDH: Mm99999915_g1; IL-6: Mm00446190_m1; pro-IL-1β: Mm00434228_m1; TNFα: Mm00443258_m1). Primers for IRE1 detection were GCACGUGAAUUGAUAGAGA (SEQ ID NO: 10) and UCUCUAUCAAUUCACGUGC (SEQ ID NO: 11). Primers for the detection of XBP1 were previously published (Lipson et al., 2008). RT-PCR was performed as described previously (Gaultier et al., 2009).
cDNA synthesis and quantitative PCR. Total RNA was extracted using an ISOLATE II RNA kit (Bioline, 52073) and cDNA synthesis was performed with the SENSIFAST™ cDNA synthesis kit (Bioline, BIO-65054). TaqMan Probes were obtained from Thermo Fisher (GAPDH: Mm99999915_g1; IL-6: Mm00446190_m1; pro-IL-1β: Mm00434228_m1; IL10: Mm004396). Primers for the detection of XBP1, IL-8, and actin were previously published (Vandesompele et al., 2002; Kumar & Valdivia, 2008; Girard et al., 2009). qPCR was performed as described previously (Gaultier et al., 2008).

FIP sepsis model mice = assay: Fecal induced peritonitis (FIP); assay type: in vivo, mouse; settings: for Survival: 1.5 g/kg fecal slurry
Protocol: Fecal induced peritonitis (FIP). Fecal material was isolated from the caecum of age- and sex-matched WT animals coming from the UVA vivarium for FIGS. 10A-10D and 10L-10R or from Jackson Laboratory for FIGS. 12D-12O, resuspended in saline and passed through a […] strainer to remove large particles. The slurry was prepared fresh for each experiment. Core body temperature was measured and mice were scored with murine sepsis severity scale by two independent, blinded researchers (Shrum et al., 2014). Blood for serum ELISA was collected from facial vein at 3 hours post FIP induction. Where indicated, fluvoxamine in saline was administered intraperitoneally at a dose of 20 mg/kg, and ceftriaxone in saline was given at a dose of 100 mg/kg subcutaneously.

BMDM = assay: IL-6 ELISA on supernatant of LPS-stimulated BMDM; assay type: cell-based, mouse; settings: 1 μg/mL LPS, 6 hours; for Difference in LPS-induced IL-6 secretion between WT and S1R KO BMDM: 20 μM JSH-23, 20 μM PD98059, 1 μM SP600125, 5 μM 4μ8C; for LPS-induced IL-6 secretion: WT and S1R KO BMDM, 20 μM JSH-23, 20 μM PD98059, 1 μM SP600125
Protocol: as §1
(§2) ELISA. ELISA for IL-6 and TNFα were performed as previously described (Remick et al., 2002). Antibodies used were: anti-mouse IL-6 MP5-20F3 (Biolegend, 504501) 0.5 μg/mL; biotin anti-mouse IL-6 MP5-32C11 (Biolegend, 504601) 1 μg/mL; anti-mouse TNFα (R&D systems, AF-410-NA) 0.5 μg/mL; biotin anti-mouse TNFα (R&D systems, BAF410) 0.25 μg/mL.
Tissue culture conditions and Reagents. HEK293 mTLR4/MD2/CD14 (Invivogen, 293-mtlr4md2cd14), primary lung fibroblasts, and BMDM were isolated and maintained as described (Zhang et al., 2008; Seluanov et al., 2010). Cells and animals were treated with LPS (Sigma, L4391), 4μ8C (Tocris, 4479), APY-29 (Medchem Express HY-17537), PD98059 (Medchem Express HY-12028), JSH-23 (Medchem Express, HY-13982), SP600125 (Medchem Express, HY-12041), STF 083010 (Medchem Express, HY-15845), Fluvoxamine (Medchem Express, HY-B0103A), and Ceftriaxone (Hospira, NDC: 0409-7337-01), as described in the text.
as §2, with “TNF-α” for “TNFα”

LPS challenged mice = assay: In vivo LPS (endotoxin) challenge; set-up: species or system mouse
Protocol: Endotoxin challenge. In vivo endotoxin challenge was performed on mice at 8-12 weeks of age. LPS from E. coli 0111:B4 (Sigma-Aldrich, L2630) was injected intraperitoneally as described in the manuscript. STF 083010 (Medchem Express, HY-15845) was resuspended in 33% Kolliphor-EL (Sigma, C5135) and administered intraperitoneally at 30 mg/kg immediately after and again 24 hours after LPS injection.
Peritoneal contents collection. Three hours after LPS injection, peritoneal cavities were washed with 2.5 mL of ice-cold PBS+5 mM EDTA, and then centrifuged to pellet cells. Supernatants were collected for ELISA, and the remaining cells were washed and stored as previously described (Gaultier et al., 2008).
LPS challenge. In vivo LPS challenge was performed on adult mice (8-12 weeks of age). LPS from E. coli 0111:B4 (Sigma-Aldrich, L2630) was injected intraperitoneally, as described in the manuscript. STF083010 (Medchem Express, HY-15845) was resuspended in 33% Kolliphor-EL (Sigma, C5135) and administered intraperitoneally at 30 mg/kg immediately after and again 24 hours after LPS injection. Fluvoxamine was resuspended in saline and administered at 20 mg/kg as indicated in the text. Blood for serum ELISA was collected from facial vein at the peak serum concentration of TNF-α and IL-6 (Copeland et al., 2005a).
Peritoneal exudates collection. Peritoneal cavities content were collected 3 hours after LPS injection in PBS+5 mM EDTA, then centrifuged to pellet cells. Supernatants were collected for ELISA, and cells were washed and stored as previously described (Gaultier et al., 2008).

HEK293 cells = assay: Immunoblot for total IRE1 in HEK293 cells overexpressing IRE1 and S1R; assay type: cell-based; settings: 5 μM lactacystin or 30 μM chloroquine, 6 hours
From the text: Western blot. […] Linear level adjustments were applied to entire images to enhance visualization.
Transfection of proteins for overexpression.

[2] = system: heparinized peripheral blood from healthy donors; assay: Human whole blood stimulation ex vivo with LPS, multiplex cytokine analysis; assay type: cell-based; settings: 10 ng/mL LPS, 20 μM fluvoxamine, 4 hours
Protocol: Human whole blood stimulation. Study participants were healthy adults (ages 18-45). The study was approved by the Institutional Review Board at the University of Virginia, and all participants signed informed consent before enrollment. Blood was collected into heparinized vacuum tube, then stimulated with 10 ng/mL LPS+/−20 μM fluvoxamine for 4 hours, as described (Thurm & Halsey, 2005). Cytokine concentrations were determined by multiplex analysis.

[3] = treatment 90 min post FIP induction, fluvoxamine 20 mg/kg i.p. and/or ceftriaxone 100 mg/kg s.c.
[4] = LPS 2 mg/kg co-administered with STF 30 mg/kg
[5] = LPS 2 mg/kg, STF 30 mg/kg i.p. at 0 hours and 24 hours
[6] = LPS 6 mg/kg, fluvoxamine 20 mg/kg at the same time as LPS

Chain of sigma-1 receptor (Q99720 whole entry): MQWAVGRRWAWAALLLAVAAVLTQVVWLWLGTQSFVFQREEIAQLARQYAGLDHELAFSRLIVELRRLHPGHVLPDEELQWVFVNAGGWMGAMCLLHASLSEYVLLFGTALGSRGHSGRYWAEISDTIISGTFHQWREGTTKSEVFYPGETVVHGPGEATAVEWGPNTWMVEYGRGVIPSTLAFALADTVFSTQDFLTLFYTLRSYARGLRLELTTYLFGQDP
T1 sequence (Q9EQY0 21-977): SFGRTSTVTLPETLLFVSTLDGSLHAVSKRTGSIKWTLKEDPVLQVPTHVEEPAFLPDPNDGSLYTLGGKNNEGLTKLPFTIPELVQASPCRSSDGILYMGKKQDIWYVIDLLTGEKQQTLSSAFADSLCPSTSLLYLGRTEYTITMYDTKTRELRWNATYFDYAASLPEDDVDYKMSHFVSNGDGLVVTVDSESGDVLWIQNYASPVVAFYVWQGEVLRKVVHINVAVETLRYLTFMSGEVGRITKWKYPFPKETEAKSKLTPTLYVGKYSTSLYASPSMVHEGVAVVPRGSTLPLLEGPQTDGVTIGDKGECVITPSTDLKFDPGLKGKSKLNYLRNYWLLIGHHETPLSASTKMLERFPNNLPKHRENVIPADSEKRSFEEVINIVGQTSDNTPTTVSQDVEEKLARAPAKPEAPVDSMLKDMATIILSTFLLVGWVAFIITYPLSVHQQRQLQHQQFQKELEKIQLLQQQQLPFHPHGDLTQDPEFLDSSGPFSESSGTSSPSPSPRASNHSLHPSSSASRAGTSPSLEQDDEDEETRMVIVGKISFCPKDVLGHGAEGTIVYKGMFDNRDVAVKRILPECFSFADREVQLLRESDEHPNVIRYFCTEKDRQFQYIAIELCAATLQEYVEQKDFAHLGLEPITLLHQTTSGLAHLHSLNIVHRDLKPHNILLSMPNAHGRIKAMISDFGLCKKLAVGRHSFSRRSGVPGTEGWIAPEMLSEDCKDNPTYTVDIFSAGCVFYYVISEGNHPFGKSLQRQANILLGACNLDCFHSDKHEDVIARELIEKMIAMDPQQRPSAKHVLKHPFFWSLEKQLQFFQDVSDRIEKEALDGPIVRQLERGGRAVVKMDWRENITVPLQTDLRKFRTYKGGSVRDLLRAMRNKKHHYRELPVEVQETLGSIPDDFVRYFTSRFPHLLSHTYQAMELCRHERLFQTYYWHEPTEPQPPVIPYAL

CN(C)CC1CCOC1(c1ccccc1)c1ccccc1.Cl (centres unmarked) [ANAVEX® 2-73, tetrahydro-N,N-dimethyl-2,2-diphenyl-3-furanmethanamine hydrochloride]
Affinity for / binding to sigma-1 receptor (S1R) (sigma-1 receptor): high nanomolar range | Memory and neuroprotection effects (mice): memory-preserving and neuroprotective effects | Binding to the muscarinic receptor (muscarinic receptor): low micromolar range | Tau hyperphosphorylation (tau hyperphosphorylation): may block tau hyperphosphorylation

c1cc(Nc2cc(C3CC3)[nH]n2)nc(Nc2ccc3nc[nH]c3c2)n1 [APY29]
XBP1 splicing amounts after forced IRE1 activation ([1]; WT vs S1R KO BMDM, activator of IRE1, 6 hours): equal in both genotypes

CO/N=C(\C(=O)N[C@@H]1C(=O)N2C(C(=O)O)=C(CSc3nc(=O)c(=O)[nH]n3C)CS[C@H]12)c1csc(N)n1 [Ceftriaxone]
Survival (FIP sepsis model mice; [3]): enhancing survival

Cc1ccc(NCCCc2ccccc2)c(N)c1 [JSH-23]
Difference in LPS-induced IL-6 secretion between WT and S1R KO BMDM (BMDM): did not eliminate the difference | LPS-induced IL-6 secretion (BMDM): reduced LPS-induced IL-6 secretion

COc1cccc(-c2cc(=O)c3ccccc3o2)c1N [PRESENTLY DISCLOSED 98059]
Difference in LPS-induced IL-6 secretion between WT and S1R KO BMDM (BMDM): without altering the ability of S1R KO BMDM to produce more IL-6 | LPS-induced IL-6 secretion (BMDM): significant decrease in IL-6 production

O=S(=O)(N=Cc1c(O)ccc2ccccc12)c1cccs1 [STF, N-[(2-Hydroxy-1-naphthalenyl)methylene]-2-thiophenesulfonamide]
Median survival of S1R KO mice (LPS challenged mice; [4]): 113 h | Mortality of S1R KO mice (LPS challenged mice; [4]): 62.5% | LPS induced mortality / survival of S1R KO mice (LPS challenged mice; [5]): largely rescued; also recorded: spared KO mice from LPS induced mortality; also recorded: clear benefit in S1R KO survival | Survival of WT mice (LPS challenged mice; [5]): did not significantly affect the survival of WT mice | Serum IL-6 (LPS challenged mice; S1R KO mice, LPS 2 mg/kg, STF 30 mg/kg i.p., serum 3 hours after LPS): significantly decreased serum IL-6; also recorded: trend toward decreased IL-6 | IL-6 in the peritoneal exudate (LPS challenged mice; S1R KO mice, LPS 2 mg/kg, STF 30 mg/kg, 3 hours after LPS): corrected by STF treatment | Blocking IL-6 secretion in S1R KO BMDM stimulated with LPS (BMDM; STF 083010 (60 μM) compared with 4μ8C (5 μM), FIG. 7A): as effective as 4μ8C | IRE1 inhibitor effectiveness (IL-6 ELISA, FIG. 11C) (BMDM; BMDM, 20 μM STF): effective IRE1 inhibitor

CCN(CC)CCCC(C)Nc1ccnc2cc(Cl)ccc12 (centres unmarked) [chloroquine]
Rescue of IRE1 protein levels in the presence of S1R overexpression (HEK293 cells): Neither lactacystin nor chloroquine treatment could rescue IRE1 protein levels

COCCCC/C(=N\OCCN)c1ccc(C(F)(F)F)cc1 [fluvoxamine]
Breadth of modulation of inflammatory mediators (FIG. 14) [2]: limited to a subset of inflammatory mediators | IL-8 production [2]: decreased | LPS-induced IL-1β [2]: significantly reduced | LPS-induced IL-6 [2]: significantly reduced | LPS-induced IL-12 p40 [2]: significantly reduced | Rectal temperature (LPS challenged mice; C57BL/6J, 24 hours after LPS, fluvoxamine 90 min post LPS challenge): improved | Clinical score (total murine sepsis score) (LPS challenged mice; C57BL/6J, LPS 6 mg/kg, fluvoxamine 90 min post LPS challenge): improved | Survival (LPS challenged mice; C57BL/6J, LPS 6 mg/kg, therapeutic fluvoxamine 90 min post LPS challenge): significantly enhanced survival | Mortality of S1R KO animals (LPS challenged mice; [6]): no significant effect | Mortality of WT mice (LPS challenged mice; [6]): significantly protected WT mice from mortality | Serum IL-6 in S1R KO animals (LPS challenged mice; [6]): no significant effect | Serum IL-6 in WT mice (LPS challenged mice; LPS 6 mg/kg, fluvoxamine 20 mg/kg at the same time as LPS, 3 hours after LPS): reduced serum IL-6 | Affinity for / binding to sigma-1 receptor (S1R) (sigma-1 receptor): low-nanomolar affinity; also recorded: high affinity | Survival (FIP sepsis model mice; therapeutic fluvoxamine 30 min post FIP induction): significantly enhanced survival | Survival (FIP sepsis model mice; [3]): as efficacious in enhancing survival as Ceftriaxone | Rectal temperature (FIP sepsis model mice; C57BL/6J, 24 hours after FIP induction, fluvoxamine 30 min post FIP induction): improved | Clinical score (total murine sepsis score) (FIP sepsis model mice; C57BL/6J, fluvoxamine 30 min post FIP induction): improved

CC(=O)N[C@@H](CSC(=O)[C@]1([C@@H](O)C(C)C)NC(=O)[C@H](C)[C@@H]1O)C(=O)O [lactacystin]
Rescue of IRE1 protein levels in the presence of S1R overexpression (HEK293 cells): Neither lactacystin nor chloroquine treatment could rescue IRE1 protein levels

tunicamycin
XBP1 splicing after tunicamycin ([1]; S1R KO vs WT BMDM, 5 μM tunicamycin, 6 hours): elevated XBP1 splicing in S1R KO BMDM
